Legend:
histone H1 = assay: In vitro deacetylation of p300-acetylated [3H]-labelled H1; type: biochemical; details: H1 acetylated by p300-HAT with [3H]-AcCoA, incubated with different amounts of SirT1; plateau reached
Method: (§1) Detection of H1 acetylation was performed by using 4 μg of histone H1 (Upstate Biotechnology, Inc., Lake Placid, N.Y.) as an acetylated substrate for SirT1 in the NER. Deacetylation was determined by first performing a deacetylation assay using 20 and 40 μg of H1 and 6 nmol of SirT1. H1 was then isolated in the supernatant of chilled 5% perchloric acid, TCA precipitated (Albig, et al. (1998) FEBS Lett. 435:245-250), and resuspended in buffer C containing 100 mM KCl. Deacetylated H1 was then used in a subsequent NER. In vitro acetylation of H1 or recombinant H1b expressed in E. coli was carried out by incubating 10 μg H1 with 2 nmol baculovirus-generated p300 in the presence of 0.875 μCi [H^3]-Ac-CoA (Amersham, Piscataway, N.J.) in HAT buffer (75 mM Tris-HCl [pH 8.8], 135 mM NaCl). Deacetylation was carried out with the specified enzyme as above using 1 μg of the labeled Hi. […] Counts were then determined by liquid scintillation (PERKINELMER, Wellesley, Mass.) . […] In vivo H1 acetylation was analyzed by treating 293 cells for 18 hours in media containing 5 mM nicotinamide. H1 was purified as described (Albig, et al. (1998) supra) and analyzed in the NER. […]
(§2) SirT1 activity on histone H1 was directly tested in vitro. […] The same result was observed using recombinant human H1b; however, specificity was also scored in this assay using different SirT proteins.

recombinant human H1b = target: T1, recombinant human H1b (Homo sapiens, UniProt P10412); assay: In vitro deacetylation of p300-acetylated recombinant H1b by SirT proteins; type: biochemical; details: equal NAD+-exchange units measured using acetylated BSA as substrate
T1 construct: Human histone H1b and H1° were inserted into HA-Pet30c; HA (N); made in house; host or cells: E. coli BL21 (DE3)
T1 sequence (P10412 2-219): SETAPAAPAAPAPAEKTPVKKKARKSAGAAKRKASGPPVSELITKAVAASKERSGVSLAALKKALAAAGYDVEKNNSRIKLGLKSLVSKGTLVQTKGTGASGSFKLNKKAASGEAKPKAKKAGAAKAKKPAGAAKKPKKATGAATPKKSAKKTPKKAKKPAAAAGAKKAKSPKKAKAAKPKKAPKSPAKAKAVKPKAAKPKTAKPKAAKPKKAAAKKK
Method: as §1, §2

## SirT1: Human sirtuin type 1 protein, SEQ ID NO:1; purified recombinant, baculovirus-expressed
Histone H1
  total label in H1 released: up to 70%
Recombinant human H1b
  H1b deacetylation: H1b deacetylation is specific for SirT1
